Source: patent publication US20260159536A1, “AKR1C3-ACTIVATED DNA ALKYLATING AGENT, AND MEDICAL APPLICATION THEREOF” (ASCENTAWITS PHARMACEUTICALS, LTD., priority 2021, published 2026)
Read-outs that look alike come from different tables or passages of the source.

Assays:
NCI-H2110 = assay: AKR1C3-dependent cytotoxicity, NSCLC cell line NCI-H2110; format: cell-based
Procedure: (§1) The tested compound was then added. The compound was dissolved in 100% DMSO at 200 times of the desired final test concentration. When the medicament was added, the compound was further diluted to 4 times of the desired final test concentration by using the complete medium. 50 μL of aliquots of the compound with specific concentration were added to the microwells containing 150 μL of medium, and then the final medicament concentration was obtained. […] The medicament was then washed. […] After the incubation was finished, the Alamar Blue was used to analyze and quantify the living cells.

P-gp = target: T1, P-gp (Homo sapiens, UniProt P08183); assay: P-gp substrate evaluation, MDCKII-MDR1 penetration test with or without Verapamil; format: in vitro ADME; settings: for P-gp substrate: MDCKII-MDR1, with and without Verapamil; for Papp A→B at 2 h / Papp B→A at 2 h / recovery at 2 h: dog; for Papp A→B at 2 h / Papp B→A at 2 h: MDCK-MDR1
T1 construct: expressed in transfected cells; host or cells: MDCKII-MDR1 cells
Procedure: The conditions of the incubator were set as 37° C., 5% CO2, and 95% of the relative humidity.
After that, the MDCKII-MDR1 cells can be used for the penetration test.
(1) MDCKII-MDR1 transwell culture plate was taken out from the incubator.
(6) The upper and lower transportations were pooled and then incubated at 37° C. for 2 h.
After the sample tubes were vortexed for 10 min, and centrifuged at 3220 g for 30 min. […] Each sample was adopted to the three parallel incubation.
Efflux Ratio was calculated by the following formula: […]
Recovery was calculated by the following formula: […]

[1] = Liver microsome stability, rat; format: in vitro ADME; settings: for Percentage remaining after 30 minutes: Rat liver microsomes
Procedure: (§2) 1) Two individual experiments were performed.
(§3) All experiments were performed in duplicate.

NCI-H522 = assay: AKR1C3-dependent cytotoxicity, NSCLC cell line NCI-H522; format: cell-based; settings: Homo sapiens
Procedure: as §1

[2] = Liver microsome stability, mouse; format: in vitro ADME; settings: for Percentage remaining after 30 minutes: Mouse liver microsomes
Procedure: as §2, §3

[3] = test system: HuPrime model LI6643 human liver cancer; assay: In vivo pharmacodynamics, liver cancer LI6643 PDX model (Compound A, Sorafenib, AST-3424; section 4.7); set-up: species or system BALB/c nude mice; settings: for Tumor volume (x ± S): in mm³
Procedure: Experiment Instruction: BALB/c nude mice were subcutaneously inoculated with HuPrime® model LI6643 tumor blocks to establish a subcutaneous grafted tumor model of human liver cancer. […] The efficacy was evaluated according to the relative tumor inhibition rate TGI (%), and the safety was evaluated according to the change in body weight and the death of the animals.

NCI-H23 = assay: AKR1C3-dependent cytotoxicity, NSCLC cell line NCI-H23; format: cell-based; settings: Homo sapiens
Procedure: as §1

H460 cells = assay: Inhibition of H460 cancer cell proliferation (CTG, 72 h); format: cell-based; settings: Homo sapiens, NCI-H460
Procedure: If not otherwise specified, IC50 values were measured by the following experimental methods:
c) The cell suspension was added to 96-well plate with 100 μL per well and 2000 cells/well of cell density.
a) Cells were plated for 24 hours, and then the compounds acted singly. 99 μL of growth medium was supplemented per well, and then 1 μL of 200× compound was added, gently shaken to ensure uniform mixing, and then placed in a 37° C., 5% CO2 incubator.
b) The cell plate was placed in the incubator for 72 hours.
b) 100 μL of CTG reagent (CelltiterGlo kit) was added to each well, the plate was placed in a rapid oscillator and shaken for 2 minutes, and then placed at room temperature for 30 minutes away from light.
c) The chemiluminescence signal value was read with Envision instrument.
The IC50 was calculated using GraphPad Prism 8 software and the IC50 (half inhibitory concentration) of the compounds was obtained using the following non-linear fitting formula: […]

NCIH1755 = assay: AKR1C3-dependent cytotoxicity, NSCLC cell line NCIH1755; format: cell-based; settings: Homo sapiens, NCI-H1755
Procedure: as §1

[4] = MDCK-MDR1, Verapamil 0 μM, read-out: Recovery (%) AP-BL
[5] = MDCK-MDR1, Verapamil 0 μM, read-out: Recovery (%) BL-AP
[6] = MDCK-MDR1, with Verapamil 100 μM, Verapamil 100 μM, read-out: Recovery (%) AP-BL
[7] = MDCK-MDR1, with Verapamil 100 μM, Verapamil 100 μM, read-out: Recovery (%) BL-AP
[8] = 0.3 mg/kg i.v. QDx5, 2 days off, 2 weeks off, QDx5, Day 21
[9] = 1.25 mg/kg i.v. QWx2, 1 week off, QWx2, Day 21
[10] = AST-3424 1 mg/kg i.v. QDx5, 2 days off, 2 weeks off, QDx5, Day 21
[11] = 0.5 mg/kg i.v. QDx5, 2 days off, 2 weeks off, QDx5, Day 21
[12] = 2 mg/kg i.v. QDx5, 2 days off, 2 weeks off, QDx5, Day 21
[13] = Compound A 1 mg/kg i.v. QDx5, 2 days off, 2 weeks off, QDx5, Day 21

T1 sequence (P08183 whole entry): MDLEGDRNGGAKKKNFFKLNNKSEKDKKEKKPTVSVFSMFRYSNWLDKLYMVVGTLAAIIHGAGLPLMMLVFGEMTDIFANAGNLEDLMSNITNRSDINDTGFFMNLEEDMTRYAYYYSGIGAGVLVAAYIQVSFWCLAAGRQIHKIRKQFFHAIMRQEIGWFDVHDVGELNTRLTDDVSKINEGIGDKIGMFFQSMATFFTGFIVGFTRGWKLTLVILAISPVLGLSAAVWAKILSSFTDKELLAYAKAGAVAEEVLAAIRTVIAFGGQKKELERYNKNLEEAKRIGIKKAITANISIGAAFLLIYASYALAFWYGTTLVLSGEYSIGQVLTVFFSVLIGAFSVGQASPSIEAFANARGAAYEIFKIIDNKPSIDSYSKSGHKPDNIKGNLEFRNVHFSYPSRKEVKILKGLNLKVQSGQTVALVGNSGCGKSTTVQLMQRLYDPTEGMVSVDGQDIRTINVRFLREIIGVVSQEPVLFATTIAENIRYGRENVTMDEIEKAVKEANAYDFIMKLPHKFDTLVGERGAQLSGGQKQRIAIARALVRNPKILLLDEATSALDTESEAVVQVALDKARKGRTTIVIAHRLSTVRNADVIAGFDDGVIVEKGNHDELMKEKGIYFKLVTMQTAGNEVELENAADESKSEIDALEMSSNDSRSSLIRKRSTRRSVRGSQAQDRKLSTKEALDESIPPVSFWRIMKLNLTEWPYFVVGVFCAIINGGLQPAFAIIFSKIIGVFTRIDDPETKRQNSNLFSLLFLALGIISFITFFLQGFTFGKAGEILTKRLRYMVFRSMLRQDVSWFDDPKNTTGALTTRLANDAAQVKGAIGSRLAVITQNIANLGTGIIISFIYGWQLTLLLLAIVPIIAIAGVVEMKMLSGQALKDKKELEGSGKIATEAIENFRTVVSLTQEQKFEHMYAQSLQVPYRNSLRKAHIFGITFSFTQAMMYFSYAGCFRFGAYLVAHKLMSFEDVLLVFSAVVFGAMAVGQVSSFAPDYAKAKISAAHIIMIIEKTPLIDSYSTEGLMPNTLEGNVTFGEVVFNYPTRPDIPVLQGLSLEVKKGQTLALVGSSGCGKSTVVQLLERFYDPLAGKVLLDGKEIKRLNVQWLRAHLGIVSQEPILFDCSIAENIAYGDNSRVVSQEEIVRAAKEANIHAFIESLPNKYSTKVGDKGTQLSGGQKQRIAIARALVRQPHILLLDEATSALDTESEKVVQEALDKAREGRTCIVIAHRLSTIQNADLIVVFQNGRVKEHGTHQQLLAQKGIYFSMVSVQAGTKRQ

## C[C@@H](OP(=O)(N1CC1)N1CC1)c1ccc([N+](=O)[O-])c(Oc2cccc(C(=O)N(C)C)c2)c1 [AST-3424]
NCI-H2110
  IC50: 1.1 nM
P-gp
  P-gp substrate: Pgp substrate
  Papp A→B at 2 h: 1.95 ×10⁻⁶ cm/s
  Papp B→A at 2 h: 34.5 ×10⁻⁶ cm/s
P-gp; [4]
  recovery at 2 h: 79.1%
P-gp; [5]
  recovery at 2 h: 90.6%
P-gp; [6]
  recovery at 2 h: 92.6%
P-gp; [7]
  recovery at 2 h: 96.3%
[1]; with the addition of NADPH
  Percentage remaining after 30 minutes: 8.79%
NCI-H522
  IC50: > 1 µM
[2]; with the addition of NADPH
  Percentage remaining after 30 minutes: 3.1%
[3]; [8]
  Relative tumor volume (x ± S): 1.92 ± 0.2
  T/C (%): 39.84%
  TGI (%): 60.16%
  Tumor volume (x ± S): 250.47 ± 44.00
[3]; 0.3 mg/kg i.v., Day 0
  Tumor volume: 124.74 mm^3
[3]; 0.3 mg/kg i.v., Day 3
  Tumor volume: 210.50 mm^3
[3]; 0.3 mg/kg i.v., Day 7
  Tumor volume: 242.31 mm^3
[3]; 0.3 mg/kg i.v., Day 10
  Tumor volume: 227.43 mm^3
[3]; 0.3 mg/kg i.v., Day 14
  Tumor volume: 208.00 mm^3
[3]; 0.3 mg/kg i.v., Day 17
  Tumor volume: 223.43 mm^3
[3]; 0.3 mg/kg i.v., Day 21
  Tumor volume: 250.47 mm^3
[3]; 0.3 mg/kg i.v., Day 24
  Tumor volume: 302.15 mm^3
[3]; 0.3 mg/kg i.v., Day 28
  Tumor volume: 386.93 mm^3
[3]; [9]
  Relative tumor volume (x ± S): 1.36 ± 0.22
  T/C (%): 28.14%
  TGI (%): 71.86%
  Tumor volume (x ± S): 169.64 ± 41.89
[3]; 1.25 mg/kg i.v., Day 0
  Tumor volume: 124.62 mm^3
[3]; 1.25 mg/kg i.v., Day 3
  Tumor volume: 205.56 mm^3
[3]; 1.25 mg/kg i.v., Day 7
  Tumor volume: 217.23 mm^3
[3]; 1.25 mg/kg i.v., Day 10
  Tumor volume: 216.04 mm^3
[3]; 1.25 mg/kg i.v., Day 14
  Tumor volume: 187.94 mm^3
[3]; 1.25 mg/kg i.v., Day 17
  Tumor volume: 176.52 mm^3
[3]; 1.25 mg/kg i.v., Day 21
  Tumor volume: 169.64 mm^3
[3]; 1.25 mg/kg i.v., Day 24
  Tumor volume: 174.54 mm^3
[3]; 1.25 mg/kg i.v., Day 28
  Tumor volume: 146.31 mm^3
[3]; [10]
  Relative tumor volume (x ± S): 0.66 ± 0.22
  T/C (%): 13.68%
  TGI (%): 86.32%
  Tumor volume (x ± S): 75.89 ± 21.82
[3]; AST-3424 1 mg/kg i.v., Day 0
  Tumor volume: 124.32 mm^3
[3]; AST-3424 1 mg/kg i.v., Day 3
  Tumor volume: 156.70 mm^3
[3]; AST-3424 1 mg/kg i.v., Day 7
  Tumor volume: 144.82 mm^3
[3]; AST-3424 1 mg/kg i.v., Day 10
  Tumor volume: 110.44 mm^3
[3]; AST-3424 1 mg/kg i.v., Day 14
  Tumor volume: 90.12 mm^3
[3]; AST-3424 1 mg/kg i.v., Day 17
  Tumor volume: 97.62 mm^3
[3]; AST-3424 1 mg/kg i.v., Day 21
  Tumor volume: 75.89 mm^3
[3]; AST-3424 1 mg/kg i.v., Day 24
  Tumor volume: 89.34 mm^3
[3]; AST-3424 1 mg/kg i.v., Day 28
  Tumor volume: 98.43 mm^3
NCI-H23
  IC50: > 1 µM
H460 cells
  IC50: 0.11 nM
NCIH1755
  IC50: 8.2 nM

## O=[N+]([O-])c1ccc(C(OP(=O)(N2CC2)N2CC2)C(F)(F)F)cc1Oc1ccc(-c2ccc(F)cc2)c(F)c1 (racemic) [Compound A]
NCI-H2110
  IC50: 67.8 nM
P-gp
  P-gp substrate: not substrates for Pgp
  Papp A→B at 2 h: 0.18 ×10⁻⁶ cm/s
  Papp B→A at 2 h: 0.24 ×10⁻⁶ cm/s
P-gp; [4]
  recovery at 2 h: 5.03%
P-gp; [5]
  recovery at 2 h: 4.34%
P-gp; [6]
  recovery at 2 h: 5.7%
P-gp; [7]
  recovery at 2 h: 12.6%
[1]; with the addition of NADPH
  Percentage remaining after 30 minutes: 92.10%
[1]; without the addition of NADPH
  Percentage remaining after 30 minutes: 114.62%
[1]; rat
  stability in liver microsomes: relatively unstable
NCI-H522
  IC50: 14.1 µM
[2]; with the addition of NADPH
  Percentage remaining after 30 minutes: 98.59%
[2]; without the addition of NADPH
  Percentage remaining after 30 minutes: 104.30%
[2]; mouse
  stability in liver microsomes: relatively stable
[3]; [11]
  Relative tumor volume (x ± S): 1.84 ± 0.25
  T/C (%): 38.12%
  TGI (%): 61.88%
  Tumor volume (x ± S): 242.85 ± 50.74
[3]; 0.5 mg/kg i.v., Day 0
  Tumor volume: 124.86 mm^3
[3]; 0.5 mg/kg i.v., Day 3
  Tumor volume: 239.56 mm^3
[3]; 0.5 mg/kg i.v., Day 7
  Tumor volume: 282.74 mm^3
[3]; 0.5 mg/kg i.v., Day 10
  Tumor volume: 266.35 mm^3
[3]; 0.5 mg/kg i.v., Day 14
  Tumor volume: 231.35 mm^3
[3]; 0.5 mg/kg i.v., Day 17
  Tumor volume: 241.82 mm^3
[3]; 0.5 mg/kg i.v., Day 21
  Tumor volume: 242.85 mm^3
[3]; 0.5 mg/kg i.v., Day 24
  Tumor volume: 173.56 mm^3
[3]; 0.5 mg/kg i.v., Day 28
  Tumor volume: 188.68 mm^3
[3]; [12]
  Relative tumor volume (x ± S): 0.97 ± 0.14
  T/C (%): 20.19%
  TGI (%): 79.81%
  Tumor volume (x ± S): 116.38 ± 20.17
[3]; 2 mg/kg i.v., Day 0
  Tumor volume: 124.40 mm^3
[3]; 2 mg/kg i.v., Day 3
  Tumor volume: 182.25 mm^3
[3]; 2 mg/kg i.v., Day 7
  Tumor volume: 182.74 mm^3
[3]; 2 mg/kg i.v., Day 10
  Tumor volume: 162.65 mm^3
[3]; 2 mg/kg i.v., Day 14
  Tumor volume: 137.87 mm^3
[3]; 2 mg/kg i.v., Day 17
  Tumor volume: 117.10 mm^3
[3]; 2 mg/kg i.v., Day 21
  Tumor volume: 116.38 mm^3
[3]; 2 mg/kg i.v., Day 24
  Tumor volume: 122.78 mm^3
[3]; 2 mg/kg i.v., Day 28
  Tumor volume: 95.87 mm^3
[3]; [13]
  Relative tumor volume (x ± S): 1.44 ± 0.16
  T/C (%): 29.91%
  TGI (%): 70.09%
  Tumor volume (x ± S): 174.86 ± 17.43
[3]; Compound A 1 mg/kg i.v., Day 0
  Tumor volume: 124.32 mm^3
[3]; Compound A 1 mg/kg i.v., Day 3
  Tumor volume: 205.79 mm^3
[3]; Compound A 1 mg/kg i.v., Day 7
  Tumor volume: 246.90 mm^3
[3]; Compound A 1 mg/kg i.v., Day 10
  Tumor volume: 225.40 mm^3
[3]; Compound A 1 mg/kg i.v., Day 14
  Tumor volume: 195.33 mm^3
[3]; Compound A 1 mg/kg i.v., Day 17
  Tumor volume: 191.98 mm^3
[3]; Compound A 1 mg/kg i.v., Day 21
  Tumor volume: 174.86 mm^3
[3]; Compound A 1 mg/kg i.v., Day 24
  Tumor volume: 217.19 mm^3
[3]; Compound A 1 mg/kg i.v., Day 28
  Tumor volume: 231.64 mm^3
NCI-H23
  IC50: 11.9 µM
H460 cells
  IC50: 6.87 nM
NCIH1755
  IC50: 570 nM
